Converted amounts (≈) assume the structure as drawn. Structures can show the parent of a compound that is named as a salt.
Columns and labels:
MDR1 = MDR1 (Homo sapiens (Human), UniProt P08183); assay: in vitro; conditions: MDCK-MDR1
[1] = Kinetic solubility assay (CLND), pH 6.8; format: physicochemical; conditions: aqueous buffer, kinetic from dmso stock; potassium phosphate buffer pH 6.8, 2% DMSO, 24 hours at ambient temperature
IRAK4 = IRAK4 (Homo sapiens (Human), UniProt Q9NWZ3); assay: IRAK4 MSD biochemical assay (2-hour 1 mM ATP); conditions: 0.1 nM IRAK4, 1 mM ATP, 2 hour at room temperature
Sequence of IRAK4 (Q9NWZ3 whole entry): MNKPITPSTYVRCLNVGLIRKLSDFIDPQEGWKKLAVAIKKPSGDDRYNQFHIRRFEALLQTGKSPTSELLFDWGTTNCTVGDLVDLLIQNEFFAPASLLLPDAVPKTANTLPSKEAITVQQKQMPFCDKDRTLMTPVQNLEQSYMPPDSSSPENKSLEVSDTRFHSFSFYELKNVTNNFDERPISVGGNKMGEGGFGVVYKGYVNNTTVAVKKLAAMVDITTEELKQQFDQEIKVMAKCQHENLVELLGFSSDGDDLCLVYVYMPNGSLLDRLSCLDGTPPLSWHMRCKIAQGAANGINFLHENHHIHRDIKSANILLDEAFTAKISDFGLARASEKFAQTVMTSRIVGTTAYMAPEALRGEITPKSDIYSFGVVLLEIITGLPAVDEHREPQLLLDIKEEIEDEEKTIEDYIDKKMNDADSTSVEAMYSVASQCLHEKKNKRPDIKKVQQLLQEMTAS
Description: The 2-hour 1 mM ATP Biochemical Assay employed a MesoScale Detection (MSD) format.
The activity was quenched with 11 μl of 70 mM EDTA, pH 8.
To detect the phosphorylated biotinylated peptide substrate, 30 μl of the quenched reaction mixture was added to equivalent wells of a 384 well streptavidin coated MesoScale plate (Meso Scale Discovery #L21SA-1). After a 1 hour incubation of the plate for 1 hour at room temperature with gentle mixing, the plate wells were washed 3 times with 50 mM Tris, pH 7.5, 150 mM NaCl, 0.02% Tween-20.
A 25 μl volume of 1:500 anti-P-Threonine Rabbit polyclonal Antibody plus 1:500 Goat-anti-Rabbit Sulfo Tag Antibody (Meso Scale Discovery R32AB-1) in 50 mM Tris, pH 7.5, 150 mM NaCl, 0.02% Tween-20 plus 2% BSA was then added to each well. After a 1-hour incubation of the plate for 1 hour at room temperature with gentle mixing, the plate wells were washed, 3 times with 50 mM Tris, pH 7.5, 150 mM NaCl, 0.02% Tween-20.

Sequence of MDR1 (P08183 whole entry): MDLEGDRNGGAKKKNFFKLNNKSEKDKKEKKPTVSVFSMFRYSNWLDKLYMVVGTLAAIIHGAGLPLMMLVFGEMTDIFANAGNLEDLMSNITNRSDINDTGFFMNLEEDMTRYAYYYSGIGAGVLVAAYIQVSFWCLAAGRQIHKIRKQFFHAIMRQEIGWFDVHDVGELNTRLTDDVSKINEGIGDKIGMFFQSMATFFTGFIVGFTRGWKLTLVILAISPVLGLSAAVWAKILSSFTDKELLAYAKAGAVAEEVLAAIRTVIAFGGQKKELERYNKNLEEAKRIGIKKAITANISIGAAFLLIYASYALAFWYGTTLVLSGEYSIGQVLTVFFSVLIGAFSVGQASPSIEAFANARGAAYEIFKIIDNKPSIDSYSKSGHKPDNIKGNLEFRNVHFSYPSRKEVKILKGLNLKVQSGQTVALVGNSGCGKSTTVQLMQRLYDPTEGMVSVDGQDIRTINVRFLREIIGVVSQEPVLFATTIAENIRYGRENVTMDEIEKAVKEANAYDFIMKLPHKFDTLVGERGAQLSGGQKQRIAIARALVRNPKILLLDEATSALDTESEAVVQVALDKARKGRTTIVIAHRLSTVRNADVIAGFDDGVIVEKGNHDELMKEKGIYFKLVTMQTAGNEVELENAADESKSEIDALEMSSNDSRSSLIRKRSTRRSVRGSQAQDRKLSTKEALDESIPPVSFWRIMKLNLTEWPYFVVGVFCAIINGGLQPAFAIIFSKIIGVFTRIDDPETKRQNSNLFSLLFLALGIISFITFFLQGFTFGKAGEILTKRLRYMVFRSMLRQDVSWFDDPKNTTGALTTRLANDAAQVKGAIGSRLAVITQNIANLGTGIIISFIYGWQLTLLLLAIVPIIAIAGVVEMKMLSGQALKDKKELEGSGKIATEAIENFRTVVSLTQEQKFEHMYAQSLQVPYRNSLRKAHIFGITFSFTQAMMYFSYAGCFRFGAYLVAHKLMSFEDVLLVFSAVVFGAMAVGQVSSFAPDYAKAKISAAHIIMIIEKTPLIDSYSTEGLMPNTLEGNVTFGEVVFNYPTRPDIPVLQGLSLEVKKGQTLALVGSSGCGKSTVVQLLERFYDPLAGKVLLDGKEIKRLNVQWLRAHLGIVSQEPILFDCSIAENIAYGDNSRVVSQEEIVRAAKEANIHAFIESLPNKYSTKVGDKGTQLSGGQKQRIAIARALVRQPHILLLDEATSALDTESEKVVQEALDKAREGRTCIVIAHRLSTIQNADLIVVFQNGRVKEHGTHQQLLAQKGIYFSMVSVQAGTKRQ

CC12CC(c3cn4cc(C(=O)Nc5cccn([C@@H]6C[C@@H]6F)c5=O)c(OC5CCC5)cc4n3)(CO1)C2 (racemic) [Example 85, (rac)-Cis-7-cyclobutoxy-N-(1-(2-fluorocyclopropyl)-2-oxo-1,2-dihydropyridin-3-yl)-2-(1-methyl-2-oxabicyclo[2.1.1]hexan-4-yl)imidazo[1,2-a]pyridine-6-carboxamide]
efflux ratio at 120 min, 1 μM (MDR1): 7.7 | solubility kinetic at 24 h [1]: 44.5 µg/mL (≈ 93 µM) | IC50 (IRAK4): 0.6 nM

CC(C)Oc1cc2nc(C34COC(C3)C4)cn2cc1C(=O)Nc1cccn(C2CC2)c1=O [Example 34, 2-(2-oxabicyclo[2.1.1]hexan-4-yl)-N-(1-cyclopropyl-2-oxo-1,2-dihydropyridin-3-yl)-7-isopropoxyimidazo[1,2-a]pyridine-6-carboxamide]
efflux ratio at 120 min, 1 μM (MDR1): 11.1 | solubility kinetic at 24 h [1]: 39.2 µg/mL (≈ 90.2 µM) | IC50 (IRAK4): 1 nM

CC(C)Oc1cc2nc([C@@]34CC[C@@](C)(C3)OC4)cn2cc1C(=O)Nc1cccn([C@H]2C[C@@H]2C)c1=O (single isomer, unassigned) [Example 192]
efflux ratio at 120 min, 1 μM (MDR1): 1.7 | solubility kinetic at 24 h [1]: 60.6 µg/mL (≈ 127 µM) | IC50 (IRAK4): 0.7 nM

C[C@@H](CF)Oc1cc2nc(C34COC(C)(C3)C4)cn2cc1C(=O)Nc1cccn(C2CC2)c1=O [Example 28, (S)—N-(1-cyclopropyl-2-oxo-1,2-dihydropyridin-3-yl)-7-((1-fluoropropan-2-yl)oxy)-2-(1-methyl-2-oxabicyclo[2.1.1]hexan-4-yl)imidazo[1,2-a]pyridine-6-carboxamide]
efflux ratio at 120 min, 1 μM (MDR1): 18.2 | solubility kinetic at 24 h [1]: 62.6 µg/mL (≈ 134 µM) | IC50 (IRAK4): 0.2 nM

CC12CC(c3cn4cc(C(=O)Nc5cccn(C6C[C@@H]6F)c5=O)c(OC5CCC5)nc4n3)(CO1)C2 (mixture of isomers) [Example 103, (rac)-Cis-7-cyclobutoxy-N-(1-(2-fluorocyclopropyl)-2-oxo-1,2-dihydropyridin-3-yl)-2-(1-methyl-2-oxabicyclo[2.1.1]hexan-4-yl)imidazo[1,2-a]pyrimidine-6-carboxamide]
efflux ratio at 120 min, 1 μM (MDR1): 12.8 | solubility kinetic at 24 h [1]: 58.8 µg/mL (≈ 123 µM) | IC50 (IRAK4): 0.4 nM

CCC12CC(c3cn4cc(C(=O)Nc5cccn(C6CC6)c5=O)c(OC(C)C)cc4n3)(CO1)C2 [Example 2, N-(1-cyclopropyl-2-oxo-1,2-dihydropyridin-3-yl)-2-(1-ethyl-2-oxabicyclo[2.1.1]hexan-4-yl)-7-isopropoxyimidazo[1,2-a]pyridine-6-carboxamide]
efflux ratio at 120 min, 1 μM (MDR1): 3.3 | solubility kinetic at 24 h [1]: 65.7 µg/mL (≈ 142 µM) | IC50 (IRAK4): 0.4 nM

CC12CCC(c3cn4cc(C(=O)Nc5cccn(C6CC6)c5=O)c(OC5CCC5)cc4n3)(CO1)C2 (centres unmarked) [Example 23, 7-cyclobutoxy-N-(1-cyclopropyl-2-oxo-1,2-dihydropyridin-3-yl)-2-(1-methyl-2-oxabicyclo[2.2.1]heptan-4-yl)imidazo[1,2-a]pyridine-6-carboxamide]
efflux ratio at 120 min, 1 μM (MDR1): 2.8 | solubility kinetic at 24 h [1]: 61.9 µg/mL (≈ 130 µM) | IC50 (IRAK4): 0.5 nM

O=C(Nc1cccn(C2CC2)c1=O)c1cn2cc(C34COC(C3)C4)nc2cc1OC1CCC1 [Example 37, 2-(2-oxabicyclo[2.1.1]hexan-4-yl)-7-cyclobutoxy-N-(1-cyclopropyl-2-oxo-1,2-dihydropyridin-3-yl)imidazo[1,2-a]pyridine-6-carboxamide]
efflux ratio at 120 min, 1 μM (MDR1): 10.2 | solubility kinetic at 24 h [1]: 64.4 µg/mL (≈ 144 µM) | IC50 (IRAK4): 3.1 nM

C[C@H](CF)Oc1cc2nc(C34COC(C)(C3)C4)cn2cc1C(=O)Nc1cccn(C2CC2)c1=O [Example 29, (R)—N-(1-cyclopropyl-2-oxo-1,2-dihydropyridin-3-yl)-7-((1-fluoropropan-2-yl)oxy)-2-(1-methyl-2-oxabicyclo[2.1.1]hexan-4-yl)imidazo[1,2-a]pyridine-6-carboxamide]
efflux ratio at 120 min, 1 μM (MDR1): 13.6 | solubility kinetic at 24 h [1]: 60.2 µg/mL (≈ 129 µM) | IC50 (IRAK4): 0.6 nM

CC(C)Oc1cc2nc(C34COC(C)(C3)C4)cn2cc1C(=O)Nc1cccn([C@H]2C[C@H]2C)c1=O [Example 134, 7-isopropoxy-2-(1-methyl-2-oxabicyclo[2.1.1]hexan-4-yl)-N-(1-((1S,2R)-2-methylcyclopropyl)-2-oxo-1,2-dihydropyridin-3-yl)imidazo[1,2-a]pyridine-6-carboxamide]
efflux ratio at 120 min, 1 μM (MDR1): 4.4 | solubility kinetic at 24 h [1]: 38.6 µg/mL (≈ 83.5 µM) | IC50 (IRAK4): 0.5 nM

C[C@@H](Oc1cc2nc(C34COC(C)(C3)C4)cn2cc1C(=O)Nc1cccn(C2C[C@H]2F)c1=O)C(F)F (some centres unmarked) [Example 185]
efflux ratio at 120 min, 1 μM (MDR1): 21.8 | solubility kinetic at 24 h [1]: 73.2 µg/mL (≈ 146 µM) | IC50 (IRAK4): 0.1 nM

CC12CC(c3cn4cc(C(=O)Nc5ccnn(C6CC6)c5=O)c(OC5CCC5)nc4n3)(CO1)C2 [Example 72, 7-cyclobutoxy-N-(2-cyclopropyl-3-oxo-2,3-dihydropyridazin-4-yl)-2-(1-methyl-2-oxabicyclo[2.1.1]hexan-4-yl)imidazo[1,2-a]pyrimidine-6-carboxamide]
efflux ratio at 120 min, 1 μM (MDR1): 1.7 | solubility kinetic at 24 h [1]: 1.5 µg/mL (≈ 3.24 µM) | IC50 (IRAK4): 4.2 nM

CC(C)Oc1c(C(=O)Nc2cccn([C@H]3C[C@H]3F)c2=O)cn2cc(C34COC(C)(C3)C4)nc2c1F (single isomer, unassigned) [Example 93]
efflux ratio at 120 min, 1 μM (MDR1): 4.9 | solubility kinetic at 24 h [1]: 62.8 µg/mL (≈ 130 µM) | IC50 (IRAK4): 0.6 nM

CC[C@H](C)Oc1cc2nc([C@@]34CC[C@@](C)(C3)OC4)cn2cc1C(=O)Nc1cccn(C2CC2)c1=O (single isomer, unassigned) [Example 22]
efflux ratio at 120 min, 1 μM (MDR1): 4.3 | solubility kinetic at 24 h [1]: 69 µg/mL (≈ 145 µM) | IC50 (IRAK4): 0.3 nM

CC(Oc1cc2nc(C34COC(C)(C3)C4)cn2cc1C(=O)Nc1cccn(C2CC2)c1=O)C(F)F [Example 102, (S)—N-(1-cyclopropyl-2-oxo-1,2-dihydropyridin-3-yl)-7-((1,1-difluoropropan-2-yl)oxy)-2-(1-methyl-2-oxabicyclo[2.1.1]hexan-4-yl)imidazo[1,2-a]pyridine-6-carboxamide]
efflux ratio at 120 min, 1 μM (MDR1): 10.8 | solubility kinetic at 24 h [1]: 69.3 µg/mL (≈ 143 µM) | IC50 (IRAK4): 0.3 nM

CC12CC(c3cn4cc(C(=O)Nc5cccn([C@@H]6C[C@@H]6F)c5=O)c(OC5CCC5)nc4n3)(CO1)C2 (single isomer, unassigned) [Example 113]
efflux ratio at 120 min, 1 μM (MDR1): 8.7 | solubility kinetic at 24 h [1]: 59.5 µg/mL (≈ 124 µM) | IC50 (IRAK4): 12.6 nM

CC(C)Oc1cc2nc([C@@]34CC[C@@](C)(C3)OC4)cn2cc1C(=O)Nc1cccn([C@H]2C[C@@H]2F)c1=O (single isomer, unassigned) [Example 117]
efflux ratio at 120 min, 1 μM (MDR1): 3.9 | solubility kinetic at 24 h [1]: 23.1 µg/mL (≈ 48.1 µM) | IC50 (IRAK4): 0.7 nM

CC(C)Oc1cc2nc([C@]34CC[C@](C)(C3)OC4)cn2cc1C(=O)Nc1cccn([C@@H]2C[C@H]2F)c1=O (single isomer, unassigned) [Example 118]
efflux ratio at 120 min, 1 μM (MDR1): 5.1 | solubility kinetic at 24 h [1]: 56.2 µg/mL (≈ 117 µM) | IC50 (IRAK4): 0.9 nM

CC(C)Oc1c(C(=O)Nc2cccn([C@H]3C[C@H]3F)c2=O)cn2cc([C@]34CC[C@](C)(C3)OC4)nc2c1F (single isomer, unassigned) [Example 127]
efflux ratio at 120 min, 1 μM (MDR1): 3.4 | solubility kinetic at 24 h [1]: 32.6 µg/mL (≈ 65.4 µM) | IC50 (IRAK4): 0.7 nM

CC(C)Oc1cc2nc([C@@]34CC[C@@](C)(C3)OC4)cn2cc1C(=O)Nc1cccn([C@@H]2C[C@@H]2C)c1=O [Example 183, 7-isopropoxy-2-((1S,4R)-1-methyl-2-oxabicyclo[2.2.1]heptan-4-yl)-N-(1-((1R,2S)-2-methylcyclopropyl)-2-oxo-1,2-dihydropyridin-3-yl)imidazo[1,2-a]pyridine-6-carboxamide trifluoroacetate]
efflux ratio at 120 min, 1 μM (MDR1): 2.9 | IC50 (IRAK4): 15.4 nM

CO[C@H]1C[C@@H]1n1cccc(NC(=O)c2cn3cc(C45COC(C)(C4)C5)nc3nc2OC(C)C)c1=O (single isomer, unassigned) [Example 138]
efflux ratio at 120 min, 1 μM (MDR1): 3.8 | IC50 (IRAK4): 6.3 nM

CO[C@@H]1C[C@H]1n1cccc(NC(=O)c2cn3cc(C45COC(C)(C4)C5)nc3nc2OC(C)C)c1=O (single isomer, unassigned) [Example 137]
efflux ratio at 120 min, 1 μM (MDR1): 4.8 | IC50 (IRAK4): 1.4 nM

CC[C@@H](C)Oc1nc2nc(C34CCC(CF)(C3)OC4)cn2cc1C(=O)Nc1cccn(C2CC2)c1=O (stereo partly drawn) [Example 55, 7-((R)-sec-butoxy)-N-(1-cyclopropyl-2-oxo-1,2-dihydropyridin-3-yl)-2-(1-(fluoromethyl)-2-oxabicyclo[2.2.1]heptan-4-yl)imidazo[1,2-a]pyrimidine-6-carboxamide]
efflux ratio at 120 min, 1 μM (MDR1): 4.7 | IC50 (IRAK4): 1.1 nM

CC(C)Oc1cc2nc(C34COC(C)(C3)C4)cn2cc1C(=O)Nc1cccn([C@@H]2C[C@@H]2C)c1=O [Example 133, 7-isopropoxy-2-(1-methyl-2-oxabicyclo[2.1.1]hexan-4-yl)-N-(1-((1R,2S)-2-methylcyclopropyl)-2-oxo-1,2-dihydropyridin-3-yl)imidazo[1,2-a]pyridine-6-carboxamide]
efflux ratio at 120 min, 1 μM (MDR1): 4.3 | IC50 (IRAK4): 21.4 nM

CC(C)Oc1cc2nc([C@]34CC[C@](C)(C3)OC4)cn2cc1C(=O)Nc1cccn([C@@H]2C[C@@H]2C)c1=O [Example 181, 7-isopropoxy-2-((1R,4S)-1-methyl-2-oxabicyclo[2.2.1]heptan-4-yl)-N-(1-((1R,2S)-2-methylcyclopropyl)-2-oxo-1,2-dihydropyridin-3-yl)imidazo[1,2-a]pyridine-6-carboxamide trifluoroacetate]
efflux ratio at 120 min, 1 μM (MDR1): 5.3 | IC50 (IRAK4): 24.9 nM

CC(C)Oc1c(C(=O)Nc2cccn([C@@H]3C[C@H]3C)c2=O)cn2cc(C34COC(C)(C3)C4)nc2c1F [Example 147, 8-fluoro-7-isopropoxy-2-(1-methyl-2-oxabicyclo[2.1.1]hexan-4-yl)-N-(1-((1R,2R)-2-methylcyclopropyl)-2-oxo-1,2-dihydropyridin-3-yl)imidazo[1,2-a]pyridine-6-carboxamide]
efflux ratio at 120 min, 1 μM (MDR1): 1.5 | IC50 (IRAK4): 15.9 nM
